In patent US20100144712A1 (priority 2007, published 2010):
In brackets after ≈: the same amount, converted by molar mass.

Experiments:
Format in all cases: cell-based
[1] = system: Candida albican ATCC MYA-1003; experiment: In vitro antifungal activity (MIC80), Candida albican ATCC MYA-1003; conditions: Candida; Table 2, MYA 1003; read-out: Minimal inhibitory concentration (MIC80)
Method: (§1) In vitro antifungal activities of the inventive antifungal compounds were evaluated using test strains including Candida albican (ATCC 90873, 204276, 62342, 64124, 64550, 96901, MYA-573, MYA-574, MYA-575, MYA-576, MYA-1003) and Aspergillus fumigatus (ATCC 16424). Test samples and positive control samples were prepared by dissolving the inventive compounds and comparative compounds, i.e., amphotericin B, fluconazole and itraconazole, in DMSO, respectively, and each successively diluted with medium to obtain test and positive control solutions having test compound concentrations of 0.125 μg/ml to a maximum concentration not generating turbidity. Minimal inhibitory concentration (MIC80) of each compound was determined as the lowest concentration of the test compounds required to reduce growth by 80% relative to a control strain not treated.
(§2) 1) Test strain: Candida albican ATCC 90873, 204276, 62342, 64124, 64550, 96901, MYA-573, MYA-574, MYA-575, MYA-576, MYA-1003, and Aspergillus fumigatus ATCC 16424 were commercially obtained from The American Type Culture Collection (ATCC) and subcultured in CHEMON Co. Ltd. (amphotericin B was commercially purchased from Sigma, and fluconazole and itraconazole were prepared according to methods described in British Patent No. 2,099,818; and U.S. Pat. No. 4,267,179, respectively).
(§3) 2) Medium and culture condition: Candida albican was cultured in Sabourad Dextrose Agar, YM Agar or Potato Dextrose Agar according to ATCC information at a temperature of 37° C., 35° C., 30° C. or 25° C. Aspergillus fumigatus was cultured in Malt Extract Agar or Potato Dextrose Agar at a temperature ranging from 24 to 27° C.
(§4) 3) Preparation of test samples: the inventive compounds and comparative compounds were each diluted with DMSO to obtain 1 to 2 ml of a test sample in a concentration of 100-folds of the determining maximum concentration (256 μg/ml).
(§5) The test samples were each successively diluted with RPMI 1640 to obtain test solutions having concentrations of […] in a 12×75 mm sterilized disposable culture tube. The final concentration of DMSO was adjusted to […] (v/v).
(§6) 5) Preparation of strain solution and inoculation
(§7) Candida albican strains were each subcultured in Sabourad Dextrose Agar, YM Agar or Potato Dextrose Agar medium at 35° C. for 2˜3 days. In the case of yeasts, a single colony was taken from prominent colonies and suspended in 0.85% sterile physiological saline solution and the turbidity of the suspension was adjusted to 80˜82% at 530 nm, and then diluted 50-fold with RPMI 1640 medium to 1.0×10^3˜5.0×10^3 CFU/ml. The turbidity of fungi was adjusted to 80˜82% and the suspension was diluted 50-fold to […]. Aspergillus fumigatus strains were subcultured in Malt Extract Agar for 7˜10 days, and a single colony was taken from prominent colonies and suspended in 0.85% sterile physiological saline solution and the suspension was adjusted to 0.108 at 530 nm, and then diluted 1000-fold with RPMI 1640 medium to 0.4×10^2˜5×10^4 CFU/ml. The turbidity of fungi was adjusted to 80˜82% and the suspension was diluted 50-fold to 0.4102˜0.5104 CFU/ml.
(§8) The strain solutions thus obtained were each seeded into a sterilized 96-well microplate, 0.1 ml of each test solution were added thereto, and […] of alamarblue was treated to each well (Biosource, #DAL1100). This procedure was repeated 2 times.
(§9) Minimal inhibitory concentration (MIC80) of each compound was determined as the lowest concentration of the test compounds required to reduce growth by 80% relative to a control strain not treated.

[2] = system: Candida albican ATCC 96901; experiment: In vitro antifungal activity (MIC80), Candida albican ATCC 96901; conditions: Candida, ATCC96901; Table 2, ATCC 96901; read-out: Minimal inhibitory concentration (MIC80)
Method: as §1, §2, §3, §4, §5, §6, §7, §8, §9

[3] = system: Candida albican ATCC 64124; experiment: In vitro antifungal activity (MIC80), Candida albican ATCC 64124; conditions: Candida, ATCC64124; Table 2, 64124; read-out: Minimal inhibitory concentration (MIC80)
Method: as §1, §2, §3, §4, §5, §6, §7, §8, §9

[4] = system: Candida albican ATCC 62342; experiment: In vitro antifungal activity (MIC80), Candida albican ATCC 62342; conditions: Candida, ATCC62342; Table 2, 62342; read-out: Minimal inhibitory concentration (MIC80)
Method: as §1, §2, §3, §4, §5, §6, §7, §8, §9

[5] = system: Candida albican ATCC MYA-573; experiment: In vitro antifungal activity (MIC80), Candida albican ATCC MYA-573; conditions: Candida; Table 2, MYA 573; read-out: Minimal inhibitory concentration (MIC80)
Method: as §1, §2, §3, §4, §5, §6, §7, §8, §9

[6] = system: Candida albican ATCC MYA-574; experiment: In vitro antifungal activity (MIC80), Candida albican ATCC MYA-574; conditions: Candida; Table 2, MYA 574; read-out: Minimal inhibitory concentration (MIC80)
Method: as §1, §2, §3, §4, §5, §6, §7, §8, §9

[7] = system: Candida albican ATCC 90873; experiment: In vitro antifungal activity (MIC80), Candida albican ATCC 90873; conditions: Candida, ATCC90873; Table 2, ATCC 90873; read-out: Minimal inhibitory concentration (MIC80)
Method: as §1, §2, §3, §4, §5, §6, §7, §8, §9

[8] = system: Candida albican ATCC 64550; experiment: In vitro antifungal activity (MIC80), Candida albican ATCC 64550; conditions: Candida, ATCC64550; Table 2, 64550; read-out: Minimal inhibitory concentration (MIC80)
Method: as §1, §2, §3, §4, §5, §6, §7, §8, §9

[9] = system: Candida albican ATCC MYA-576; experiment: In vitro antifungal activity (MIC80), Candida albican ATCC MYA-576; conditions: Candida; Table 2, MYA 576; read-out: Minimal inhibitory concentration (MIC80)
Method: as §1, §2, §3, §4, §5, §6, §7, §8, §9

[10] = system: Candida albican ATCC MYA-575; experiment: In vitro antifungal activity (MIC80), Candida albican ATCC MYA-575; conditions: Candida; Table 2, MYA 575; read-out: Minimal inhibitory concentration (MIC80)
Method: as §1, §2, §3, §4, §5, §6, §7, §8, §9

Structure (SMILES) | MIC80 [1] | MIC80 [2] | MIC80 [3] | MIC80 [4] | MIC80 [5] | MIC80 [6] | MIC80 [7] | MIC80 [8] | MIC80 [9] | MIC80 [10]
C[C@@H](N1CCN(Cc2ccncc2)CC1)[C@](O)(Cn1cncn1)c1ccc(F)cc1F [Example 42, (2R,3R)-2-(2,4-difluorophenyl)-3-(4-((pyridin-4-yl)methyl)piperazin-1-yl)-1-(1H-1,2,4-triazol-1-yl)butan-2-ol] | 128 µg/mL (≈ 299 µM) | 64 µg/mL (≈ 149 µM) | 64 µg/mL (≈ 149 µM) | 0.5 µg/mL (≈ 1.17 µM) | 1 µg/mL (≈ 2.33 µM) | 4 µg/mL (≈ 9.34 µM) | 0.125 µg/mL (≈ 0.292 µM) | 4 µg/mL (≈ 9.34 µM) | 0.125 µg/mL (≈ 0.292 µM) | 0.5 µg/mL (≈ 1.17 µM)
C[C@@H](N1CCN(c2nc3ccc(N(C)CCN4CCOCC4)cc3s2)CC1)[C@](O)(Cn1cncn1)c1ccc(F)cc1F [Example 13, (2R,3R)-3-(4-(6-(N-methyl-N-(2-morpholinoethyl)amino)benzothiazol-2-yl)piperazin-1-yl)-2-(2,4-difluorophenyl)-1-(1H-1,2,4-triazol-1-yl)butan-2-ol] | 32 µg/mL (≈ 52.2 µM) | 8 µg/mL (≈ 13.1 µM) | 2 µg/mL (≈ 3.26 µM) | 0.25 µg/mL (≈ 0.408 µM) | 0.25 µg/mL (≈ 0.408 µM) | 16 µg/mL (≈ 26.1 µM) | 0.125 µg/mL (≈ 0.204 µM) | 0.5 µg/mL (≈ 0.816 µM) | 0.125 µg/mL (≈ 0.204 µM) | 0.125 µg/mL (≈ 0.204 µM)
CC(C)Oc1ccc(N2CCN([C@H](C)[C@](O)(Cn3cncn3)c3ccc(F)cc3F)CC2)cn1 [Example 33, (2R,3R)-2-(2,4-difluorophenyl)-3-(4-(6-(isopropyloxy)pyridin-3-yl)piperazin-1-yl)-1-(1H-1,2,4-triazol-1-yl)butan-2-ol] | > 128 µg/mL | 64 µg/mL (≈ 135 µM) | 64 µg/mL (≈ 135 µM) | 2 µg/mL (≈ 4.23 µM) | 2 µg/mL (≈ 4.23 µM) | 4 µg/mL (≈ 8.46 µM) | 0.125 µg/mL (≈ 0.265 µM) | 4 µg/mL (≈ 8.46 µM) | 0.125 µg/mL (≈ 0.265 µM) | 0.125 µg/mL (≈ 0.265 µM)
CCCCOc1cccc(N2CCN([C@H](C)[C@](O)(Cn3cncn3)c3ccc(F)cc3F)CC2)n1 [Example 23, (2R,3R)-3-(4-(6-(butyloxy)pyridin-2-yl)piperazin-1-yl)-2-(2,4-difluorophenyl)-1-(1H-1,2,4-triazol-1-yl)butan-2-ol] | > 128 µg/mL | > 128 µg/mL | > 128 µg/mL | > 128 µg/mL | > 128 µg/mL | > 128 µg/mL | 0.25 µg/mL (≈ 0.514 µM) | > 128 µg/mL | 0.5 µg/mL (≈ 1.03 µM) | 0.5 µg/mL (≈ 1.03 µM)
C[C@@H](N1CCN(c2cccc(N(C)CCc3cccs3)n2)CC1)[C@](O)(Cn1cncn1)c1ccc(F)cc1F [Example 28, (2R,3R)-2-(2,4-difluorophenyl)-3-(4-(6-(methyl(2-(thiophen-2-yl)ethyl)amino)pyridin-2-yl)piperazin-1-yl)-1-(1H-1,2,4-triazol-1-yl)butan-2-ol] | > 128 µg/mL | > 128 µg/mL | > 128 µg/mL | > 128 µg/mL | > 128 µg/mL | > 128 µg/mL | 0.25 µg/mL (≈ 0.452 µM) | > 128 µg/mL | 1 µg/mL (≈ 1.81 µM) | 1 µg/mL (≈ 1.81 µM)
C[C@@H](N1CCN(c2nc3cc(Cl)ccc3o2)CC1)[C@](O)(Cn1cncn1)c1ccc(F)cc1F [Example 5, (2R,3R)-3-(4-(5-chlorobenzooxazol-2-yl)piperazin-1-yl)-2-(2,4-difluorophenyl)-1-(1H-1,2,4-triazol-1-yl)butan-2-ol] | > 128 µg/mL | 2 µg/mL (≈ 4.09 µM) | 2 µg/mL (≈ 4.09 µM) | 0.125 µg/mL (≈ 0.256 µM) | 0.25 µg/mL (≈ 0.511 µM) | 0.5 µg/mL (≈ 1.02 µM) | 0.125 µg/mL (≈ 0.256 µM) | 0.5 µg/mL (≈ 1.02 µM) | 0.125 µg/mL (≈ 0.256 µM) | 0.125 µg/mL (≈ 0.256 µM)
